PubChem BioAssay AID1549 (Sanford-Burnham Center for Chemical Genomics, 2009)
The source made the active and inactive calls. No rule for the calls is given here.

Biological target: Influenza A virus M2 proton channel (A/TW/4845/1999 H1N1)
Assay: NMR binding screen, influenza A virus M2 proton channel, Kd (AID 1549)
Conditions: M2 protein

SMILES | Kd
NS(=O)(=O)c1ccc(N=Cc2ccc[nH]2)cc1 | > 4 mM (inactive)
Oc1cc(O)cc(/C=C/c2ccccc2)c1 | > 4 mM (inactive)
O=C1NC(=S)N/C1=C\c1ccccc1 | > 4 mM (inactive)
Oc1ccc2c(c1)OCO2 | > 4 mM (inactive)
C=C[C@H]1CN2CC[C@H]1C[C@@H]2[C@@H](O)c1ccnc2ccc(OC)cc12 | > 4 mM (inactive)
CN=C(c1ccc([N+](=O)[O-])cc1)N(C)C | > 4 mM (inactive)
COc1ccc(-c2cc(=O)c3ccccc3o2)cc1 | > 4 mM (inactive)
Nc1ncnc2c1ncn2CCOc1ccccc1 | > 4 mM (inactive)
O=C(O)CC12CC3CC(CC(O)(C3)C1)C2 | > 4 mM (inactive)
Fc1cc2nccnc2cc1N1CCSCC1 | > 4 mM (inactive)
CC(=O)c1c(C)nc(-c2ccc(Cl)cc2Cl)n1O | > 4 mM (inactive)
CC(=O)NC(=S)Nc1ccc(S(N)(=O)=O)cc1 | > 4 mM (inactive)
O=C(O)c1ccc(-c2cnco2)cc1 | > 4 mM (inactive)
CC(=O)OCC(=O)[C@@]1(O)CCC2C3CC[C@@H]4C[C@H](OC(C)=O)CC[C@]4(C)C3C(=O)C[C@@]21C (some centres undefined) | > 4 mM (inactive)
O=C1NC(=S)N/C1=C\c1ccccc1F | > 4 mM (inactive)
Cc1ccc(S(=O)(=O)/N=C2\NC(=O)CS2)cc1 | > 4 mM (inactive)
c1ccc(Cc2nn3c(-c4ccncc4)nnc3s2)cc1 | > 4 mM (inactive)
O=C(Nc1ccncc1)c1c(F)cccc1F | > 4 mM (inactive)
C=CCCCCCCCCCCCc1ccco1 | > 4 mM (inactive)
Cc1cc(=O)cc(C)n1-c1ccccc1N1CCOCC1 | > 4 mM (inactive)

SMILES | Kd
C[C@H](CCC(=O)O)[C@H]1CCC2C3C(CC[C@@]21C)[C@@]1(C)CC[C@@H](O)C[C@H]1C[C@@H]3O (some centres undefined) | > 4 mM (inactive)
O=C(O)c1snnc1-c1ccccc1 | > 4 mM (inactive)
COc1cccc(O)c1O | > 4 mM (inactive)
CC1(C)CC[C@]2(C(=O)O)CC[C@]3(C)C(=CCC4[C@@]5(C)CC[C@@H](O)C(C)(C)C5CC[C@]43C)C2C1 (some centres undefined) | > 4 mM (inactive)
CN(c1ccc(C(=O)N2CCCCC2)cc1)S(C)(=O)=O | > 4 mM (inactive)
COc1cccc2onc(N)c12 | > 4 mM (inactive)
O=C(O)c1ccc(CSc2ncn[nH]2)cc1 | > 4 mM (inactive)
C=C1C(=O)O[C@@H]2C[C@@]3(C)CCC[C@H](C)C3=C[C@H]12 | > 4 mM (inactive)
Cc1cc(NC(=O)c2cccc(S(C)(=O)=O)c2)no1 | > 4 mM (inactive)
CC(=O)c1csc(-c2cc(C)on2)n1 | > 4 mM (inactive)
NS(=O)(=O)c1ccc(NC(=S)NC2CC2)cc1 | > 4 mM (inactive)
O=CN1CCN(C(=O)c2ccco2)CC1 | > 4 mM (inactive)
CN(C)S(=O)(=O)c1cccc(N)c1 | > 4 mM (inactive)
CC(=O)Nc1nnc(-c2ccccc2)o1 | > 4 mM (inactive)
Nc1nc(-c2ccccc2)cc(=O)[nH]1 | > 4 mM (inactive)
Oc1ccccc1-c1cc(C(F)(F)F)[nH]n1 | > 4 mM (inactive)
Cc1cc(C)n(S(=O)(=O)c2ccc(C)c(C)c2C)n1 | > 4 mM (inactive)
N=c1c2c3c(sc2ncn1N)CCCC3 | > 4 mM (inactive)
Cc1ccc(N2C(=O)CC(Sc3ncn[nH]3)C2=O)cc1 (centres undefined) | > 4 mM (inactive)
CC(C)CCCC1(C)C=Cc2c(O)c3c(c(CCC(C)C)c2O1)OC12C(CC4CC1C(C)(C)OC2(CCC(C)C(=O)O)C4O)C3=O (centres undefined) | > 4 mM (inactive)

SMILES | Kd
CNC(=O)c1ccc([N+](=O)[O-])cc1Cl | > 4 mM (inactive)
Cc1cc(N2CCN(C)CC2)ncn1 | > 4 mM (inactive)
COC(=O)Cn1c2ccccc2c2nc(C)sc21 | > 4 mM (inactive)
CC(=O)N1CCN(C2CCSC2)CC1 (centres undefined) | > 4 mM (inactive)
Cc1cccc(C)c1NC(=O)/C=C/C(=O)O | > 4 mM (inactive)
COc1c2ccccc2nc2occc12 | > 4 mM (inactive)
O=c1[nH]cc(NCc2ccco2)c(=O)[nH]1 | > 4 mM (inactive)
NC(=O)CC1NC(=O)c2ccccc21 (centres undefined) | > 4 mM (inactive)
CCOC(=O)CC1NCCNC1=O (centres undefined) | > 4 mM (inactive)
CC(=O)Nc1cc(O)cc(O)c1 | > 4 mM (inactive)
NCc1cccc2nsnc12 | > 4 mM (inactive)
COc1cccc(NC(=O)c2cnn(C)c2Cl)c1 | > 4 mM (inactive)
CC1=CC(=O)C2C(C)(C)CCC[C@]2(C)[C@@]1(O)CCc1ccoc1 (some centres undefined) | > 4 mM (inactive)
Nc1cc(=O)[nH]c(=S)n1CCc1ccccc1 | > 4 mM (inactive)
COC(=O)CCSCC(=O)Nc1nccs1 | > 4 mM (inactive)
NC1CCN(Cc2ccccc2)CC1 | > 4 mM (inactive)
Fc1ccc(N2CCNCC2)cc1 | > 4 mM (inactive)
COc1ccccc1/C=C\C(=O)O | > 4 mM (inactive)
CC(=O)Nc1cnn(Cc2ccc(Br)cc2)c1 | > 4 mM (inactive)
